Assay results: patent publication US7674819B2 (Warner-Lambert Company LLC, priority 2005, dated 2010)
Changes are numbered by the printed parent chain. pIC50: −log10 of the molar value. Read-outs that look alike come from different tables or passages of the source.

Experiments:
[1] = target: T1, hAR (Homo sapiens, UniProt P10275); assay: Competitive binding of 3H-DHT to baculovirus/Sf9 generated hAR extracts; details: one hour at 4° C., mean of multiple tests
T1 sequence (P10275 1-920): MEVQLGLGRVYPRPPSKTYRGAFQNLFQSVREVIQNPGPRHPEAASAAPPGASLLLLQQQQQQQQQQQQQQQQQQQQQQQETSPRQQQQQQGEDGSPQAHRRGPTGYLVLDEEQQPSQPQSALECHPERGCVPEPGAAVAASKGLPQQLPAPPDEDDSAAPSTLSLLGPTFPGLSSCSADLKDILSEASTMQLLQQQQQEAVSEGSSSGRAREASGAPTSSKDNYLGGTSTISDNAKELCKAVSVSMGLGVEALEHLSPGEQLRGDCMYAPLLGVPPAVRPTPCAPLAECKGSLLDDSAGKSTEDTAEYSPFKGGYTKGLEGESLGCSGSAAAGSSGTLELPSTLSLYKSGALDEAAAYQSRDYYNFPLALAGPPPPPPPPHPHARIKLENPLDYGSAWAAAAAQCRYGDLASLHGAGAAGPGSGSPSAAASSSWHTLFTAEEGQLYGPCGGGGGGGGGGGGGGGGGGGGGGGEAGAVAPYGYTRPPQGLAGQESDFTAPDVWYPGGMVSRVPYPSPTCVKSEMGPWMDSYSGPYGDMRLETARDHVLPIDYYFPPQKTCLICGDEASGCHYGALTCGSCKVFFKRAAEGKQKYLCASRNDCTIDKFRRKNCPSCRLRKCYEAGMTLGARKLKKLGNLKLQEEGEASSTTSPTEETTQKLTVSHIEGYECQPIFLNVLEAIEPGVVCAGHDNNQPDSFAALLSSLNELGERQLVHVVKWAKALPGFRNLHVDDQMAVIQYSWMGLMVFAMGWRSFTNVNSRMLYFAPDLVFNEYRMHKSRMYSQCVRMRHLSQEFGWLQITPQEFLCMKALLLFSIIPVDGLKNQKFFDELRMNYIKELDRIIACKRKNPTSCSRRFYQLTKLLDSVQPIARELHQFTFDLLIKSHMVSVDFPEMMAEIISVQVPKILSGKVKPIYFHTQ
In short: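 Baculovirus/Sf9-expressed hAR extract incubated with test compound, hydroxylapatite and 1 nM 3H-DHT tracer for 1 h at 4° C, then washed free of unbound tracer. Affinity given as concentration inhibiting half of maximal 3H-DHT binding.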

[2] = target: T2, androgen receptor (Homo sapiens, UniProt P10275); assay: AR Antagonist Cell Assay (MDA-MB453-MMTV clone 54-19, luciferase reporter); type: cell-based; details: inhibition of induction by DHT (final concentration at 100 μM), 17 hr, compound 0.32-1000 nM, mean of multiple tests
T2 sequence (P10275 1-920 Q868H): T1 sequence (P10275 1-920) with Q868H
Description: The compounds ability to antagonize the effects of androgen on the androgen receptor were determined in a whole cell assay as described immediately below.
Experimental Procedure for AR Antagonist Cell Assay
This cell line is a stable transfected cell line with MDA-MB453 cell background (a human breast tumor cell line expressing androgen receptor). A MMTV minimal promoter containing ARE was first cloned in front of a firefly luciferase reporter gene. Then the cascade was cloned into transfection vector pUV120puro. […] Puromycin resistant stable cell line was selected.
Cell Culture Media and Reagents:
Plating medium: DMEM (phenol red free), 10% charcoal treated HyClone serum, 1% L-glutamine
Assay medium: DMEM (phenol red free), 1% charcoal treated HyClone serum, 1% L-glutamine, 1% penicillin/streptomycin
Cells are maintained in culture medium, splitting cells when they reach 80-90% confluence
To test compounds, 10,000 cells/well are plated to opaque 96 cell culture plate in 100 ul/well plating medium, culture for overnight at 37° C. in cell culture incubator
Add 10 ul/well freshly prepared DHT (final concentration at […]) to each well, incubate at 37° C. for 17 hr (overnight)
Add 50 ul/well 3× luciferase buffer, incubate at room temperature for 5 minutes, then count on Luminometer
The results are reported as the mean of multiple tests described below (the numbers of tests are indicated in the footnote). N.D. denotes that the compound was not tested.

[3] = IC50, concentration at which one half of maximum binding of 1 nM 3H-DHT to hAR is inhibited
[4] = concentration at which one half of maximum binding of 1 nM 3H-DHT to hAR is inhibited, read-out: IC50

Row | SMILES | pIC50 [1, 3] | pIC50 [2] | pIC50 ([2]; read-out: IC50) | pIC50 [1, 4]
1 | CC1(C)CN(Cc2ccccc2O)C(=O)C1Oc1ccc(C#N)c(C(F)(F)F)c1 (stereo not shown) [Example 11, 4-[1-(2-Hydroxy-benzyl)-4,4-dimethyl-2-oxo-pyrrolidin-3-yloxy]-2-trifluoromethyl-benzonitrile] | 7.77 | 7.85 |  | 
2 | COc1cccc(CN2CC(C)(C)C(Oc3ccc(C#N)c(C(F)(F)F)c3)C2=O)c1 (stereo not shown) [Example 12, 4-[1-(3-Methoxy-benzyl)-4,4-dimethyl-2-oxo-pyrrolidin-3-yloxy]-2-trifluoromethyl-benzonitrile] | 6.95 | 6.51 |  | 
3 | CC1(C)CN(Cc2cccc(O)c2)C(=O)C1Oc1ccc(C#N)c(C(F)(F)F)c1 (stereo not shown) [Example 13, 4-[1-(3-Hydroxy-benzyl)-4,4-dimethyl-2-oxo-pyrrolidin-3-yloxy]-2-trifluoromethyl-benzonitrile] | 7.96 | 6.50 |  | 
4 | CC1(C)CN(Cc2ccccc2F)C(=O)C1Oc1ccc(C#N)c(C(F)(F)F)c1 (stereo not shown) [Example 15, 4-[1-(2-Fluoro-benzyl)-4,4-dimethyl-2-oxo-pyrrolidin-3-yloxy]-2-trifluoromethyl-benzonitrile] | 7.32 | 7.15 |  | 
5 | CC1(C)CN(Cc2ccccc2F)C(=O)C1Oc1ccc(C#N)c(C(F)(F)F)c1 (stereo not shown) [Example 16, 4-[1-(2-Fluoro-benzyl)-4,4-dimethyl-2-oxo-pyrrolidin-3-yloxy]-2-trifluoromethyl-benzonitrile] | 7.59 | 7.37 |  | 
6 | CC1(C)CN(Cc2ccc(F)cc2)C(=O)C1Oc1ccc(C#N)c(C(F)(F)F)c1 (stereo not shown) [Example 17, 4-[1-(4-Fluoro-benzyl)-4,4-dimethyl-2-oxo-pyrrolidin-3-yloxy]-2-trifluoromethyl-benzonitrile] | 6.84 | 6.67 |  | 
7 | CC1(C)CN(Cc2cc(O)cc(O)c2)C(=O)C1Oc1ccc(C#N)c(C(F)(F)F)c1 (stereo not shown) [Example 18, 4-[1-(3,5-Dihydroxy-benzyl)-4,4-dimethyl-2-oxo-pyrrolidin-3-yloxy]-2-trifluoromethyl-benzonitrile] | 7.35 | 8.10 |  | 
8 | CCCCN1CC(C)(C)C(Oc2ccc(C#N)c(C(F)(F)F)c2)C1=O (stereo not shown) [Example 19, 4-(1-Butyl-4,4-dimethyl-2-oxo-pyrrolidin-3-yloxy)-2-trifluoromethyl-benzonitrile] | 6.82 | 7.72 |  | 
9 | CC(C)OC(=O)c1ccc(CN2CC(C)(C)C(Oc3ccc(C#N)c(C(F)(F)F)c3)C2=O)o1 (stereo not shown) [Example 27, 5-[3-(4-Cyano-3-trifluoromethyl-phenoxy)-4,4-dimethyl-2-oxo-pyrrolidin-1-ylmethyl]-furan-2-carboxylic acid isopropyl ester] | 7.36 |  | 6.43 | 
10 | COC(=O)c1ccc(CN2CC(C)(C)C(Oc3ccc(C#N)c(C(F)(F)F)c3)C2=O)o1 (stereo not shown) [Example 28, 5-[3-(4-Cyano-3-trifluoromethyl-phenoxy)-4,4-dimethyl-2-oxo-pyrrolidin-1-ylmethyl]-furan-2-carboxylic acid methyl ester] |  |  | 6.50 | 6.51
11 | CCOC(=O)c1ccc(CN2CC(C)(C)C(Oc3ccc(C#N)c(C(F)(F)F)c3)C2=O)o1 (stereo not shown) [Example 29, 5-[3-(4-Cyano-3-trifluoromethyl-phenoxy)-4,4-dimethyl-2-oxo-pyrrolidin-1-ylmethyl]-furan-2-carboxylic acid ethyl ester] | 6.92 | 6.91 |  | 
12 | COC(=O)c1csc(CN2CC(C)(C)C(Oc3ccc(C#N)c(C(F)(F)F)c3)C2=O)n1 (stereo not shown) [Example 30, 2-[3-(4-Cyano-3-trifluoromethyl-phenoxy)-4,4-dimethyl-2-oxo-pyrrolidin-1-ylmethyl]-thiazole-4-carboxylic acid methyl ester] | 6.67 | 6.09 |  | 
13 | CC1(C)CN(Cc2ccncc2)C(=O)C1Oc1ccc(C#N)c(C(F)(F)F)c1 (stereo not shown) [Example 35, 4-(4,4-Dimethyl-2-oxo-1-pyridin-4-ylmethyl-pyrrolidin-3-yloxy)-2-trifluoromethyl-benzonitrile] | 6.89 | 6.31 |  | 
14 | COC(=O)c1ccc(CN2CC(C)(C)C(Oc3ccc(C#N)c(C(F)(F)F)c3)C2=O)cc1 (stereo not shown) [Example 37, 4-[3-(4-Cyano-3-trifluoromethyl-phenoxy)-4,4-dimethyl-2-oxo-pyrrolidin-1-ylmethyl]-benzoic acid methyl ester] | 7.33 | 7.08 |  | 
15 | CC1(C)CN(Cc2ccc3nsnc3c2)C(=O)C1Oc1ccc(C#N)c(C(F)(F)F)c1 (stereo not shown) [Example 39, 4-(1-Benzo[1,2,5]thiadiazol-5-ylmethyl-4,4-dimethyl-2-oxo-pyrrolidin-3-yloxy)-2-trifluoromethyl-benzonitrile] | 7.19 | 7.13 |  | 
16 | CC1(C)CN(Cc2nc3ccccc3s2)C(=O)C1Oc1ccc(C#N)c(C(F)(F)F)c1 (stereo not shown) [Example 40, 4-(1-Benzothiazol-2-ylmethyl-4,4-dimethyl-2-oxo-pyrrolidin-3-yloxy)-2-trifluoromethyl-benzonitrile] | 7.37 | 7.30 |  | 
17 | CC1(C)CN(Cc2cccc3nsnc23)C(=O)C1Oc1ccc(C#N)c(C(F)(F)F)c1 (stereo not shown) [Example 41, 4-(1-Benzo[1,2,5]thiadiazol-4-ylmethyl-4,4-dimethyl-2-oxo-pyrrolidin-3-yloxy)-2-trifluoromethyl-benzonitrile] |  |  | 7.14 | 6.97
18 | CC1(C)CN(Cc2cccc(OC(F)F)c2)C(=O)C1Oc1ccc(C#N)c(C(F)(F)F)c1 (stereo not shown) [Example 42, 4-[1-(3-Difluoromethoxy-benzyl)-4,4-dimethyl-2-oxo-pyrrolidin-3-yloxy]-2-trifluoromethyl-benzonitrile] |  |  | 6.66 | 6.92
19 | CC1(C)CN(Cc2cccc(C#N)c2)C(=O)C1Oc1ccc(C#N)c(C(F)(F)F)c1 (stereo not shown) [Example 45] | 7.30 | 7.30 |  | 
20 | CC1(C)CN(Cc2noc(-c3ccccc3)n2)C(=O)C1Oc1ccc(C#N)c(C(F)(F)F)c1 (stereo not shown) [Example 46, 4-[4,4-Dimethyl-2-oxo-1-(5-phenyl-[1,2,4]oxadiazol-3-ylmethyl)-pyrrolidin-3-yloxy]-2-trifluoromethyl-benzonitrile] | 7.05 | 7.37 |  | 
